Bridge positions count the residues as written; N and C are the ends. Square brackets hold non-standard residues; d marks the D form. Ends that are not written are not given here. Peptide text beside a SMILES is read from it. Phe(ol) = N[C@H](CO)Cc1ccccc1; Aib = CC(C)(N)C(=O)O

A short description of assay [1]: pore-forming activity (dissipation of membrane potential in liposomes). Type of assay: biochemical. The method, then: Antimicrobial assays: After each purification step, antibacterial activity was monitored by a solid plate assay as described in previous studies (14). The minimal inhibitory concentration (MIC) and the minimal bactericidal concentration (MBC) were determined according to the method of Hancock (http://cmdr.ubc.ca/bobh/showmethod.php?methodid=79). Permeabilization of bacterial membranes and pore-forming activity were assayed as previously described (Herbst, R et al. (2002), J Biol Chem 277:22353-22360; Leippe, M. et al. 1991. Proc Natl Acad Sci USA 88:7659-7663).
No activity was found towards the Gram negative A. hydrophila at the same concentration. […] Since neuromacin contains four histidine residues in its primary structure (in contrast to none in theromacin), we evaluated the effect of a more acidic pH, at which the histidine residues are protonated, on the membrane-permeabilizing activity (FIG. 5B). […] Similar activity against the Gram-negative representative E. coli was not detected up to a neuromacin concentration of 25 μM (data not shown). We also measured the pore-forming activity of neuromacin to further characterize its mode of action by using a minimalistic membrane system. More precisely, we monitored the dissipation of a membrane potential induced in liposomes composed of azolectin, a crude phospholipid mixture from soy bean.

The subject of assay [2] is B. megaterium. The assay is described as follows: SYTOX Green membrane permeabilization assay. In kind it is cell-based, Bacillus megaterium. The method, then:
FIG. 5 illustrates membrane permeabilization of B. megaterium induced by neuromacin. Membrane damage of the bacteria was measured fluorometrically using the dye SYTOX Green. […] Antibacterial activity of the peptides is expressed as a percentage of permeabilized bacteria. (A) Time kinetics of membrane permeabilization induced by neuromacin measured for different doses at various incubation periods. (B) Membrane permeabilizing effects of neuromacin (rhombs) in comparison with cecropin P1 (triangles) and magainin II (circles) after 30 min of incubation of B. megaterium with each peptide at various concentrations, at pH 5.2 (open symbols) and at pH 7.4 (closed symbols). […]
(§1) Antimicrobial assays: After each purification step, antibacterial activity was monitored by a solid plate assay as described in previous studies (14). The minimal inhibitory concentration (MIC) and the minimal bactericidal concentration (MBC) were determined according to the method of Hancock (http://cmdr.ubc.ca/bobh/showmethod.php?methodid=79). […]
No activity was found towards the Gram negative A. hydrophila at the same concentration. […] Since neuromacin contains four histidine residues in its primary structure (in contrast to none in theromacin), we evaluated the effect of a more acidic pH, at which the histidine residues are protonated, on the membrane-permeabilizing activity (FIG. 5B). […]

Assay [3] has as its system axotomized nerve cords. The assay is described as follows: regeneration of axotomized leech nerve cord ex vivo (time-lapse). Details: species or system Hirudo medicinalis. The note with it: native neuromacin 4 μM, aseptic conditions; 4 days without neuromacin. As for the experimental part: Collection and treatment of the nerve cords: Adult leeches, Hirudo medicinalis species, weighting 2-3 g were purchased from a commercial supplier (Ricarampex, France). Animals were kept in artificial pond water and starved up to 3 weeks before use. Leeches were anaesthetised in 10% ethanol-spring water for 20 min and the nerve cords were removed according to the protocol of Nicholls et al (J Neurophysiol, 1968, 31:740-756.). After three successive baths in antibiotics, cords were placed in Leibowitz-15 (L-15, Gibco) culture medium supplemented with 2% fetal calf serum, 0.6% glucose and gentamicin ([…]) (Nature, 1979, 281:67-69). Connectives between ganglia were injured in a standard manner using a pair of sterilized fine iridectomy scissors. Axotomized nerve cords were separately incubated in L-15 medium containing different microbial components: 3×10^7 CFU/ml of heat killed or live bacteria, 10 μg/ml of polyI:C (Invivogen), 100 μg/ml of zymosan (Invivogen,) and 100 μg/ml of mannane (Invivogen) for different time (t=0 to t=8 days) at room temperature. Incubations without microbial components or bacteria were performed in the same conditions as controls. All the steps were performed under sterile conditions. […]

Assay [4] deals with Gram negative A. hydrophila. The assay is described as follows: liquid growth inhibition assay. In kind it is cell-based, Aeromonas hydrophila. The note with it: at the same concentration as against M. nishinomiyaensis.
From the text: Microorganisms: The Gram-positive and Gram-negative bacteria Micrococcus nishinomiyaensis and Aeromonas hydrophila respectively were isolated from the natural environment of Hirudo medicinalis. These bacterial colonies, which are present in the water, were selected from agar plate under aerobic conditions at room temperature using a random isolation grid. The Gram-positive bacteria Bacillus megaterium was used for the SYTOX Green assay.
as §1
No activity was found towards the Gram negative A. hydrophila at the same concentration. […] Since neuromacin contains four histidine residues in its primary structure (in contrast to none in theromacin), we evaluated the effect of a more acidic pH, at which the histidine residues are protonated, on the membrane-permeabilizing activity (FIG. 5B). […] Similar activity against the Gram-negative representative E. coli was not detected up to a neuromacin concentration of 25 μM (data not shown). […]

Regarding `CC(=O)NC(C)(C)C(=O)N1CCC[C@H]1C(=O)NC(C)(C)C(=O)N[C@@H](C)C(=O)NC(C)(C)C(=O)N[C@@H](C)C(=O)N[C@@H](CCC(N)=O)C(=O)NC(C)(C)C(=O)N[C@H](C(=O)NC(C)(C)C(=O)NCC(=O)N[C@@H](CC(C)C)C(=O)NC(C)(C)C(=O)N1CCC[C@H]1C(=O)N[C@H](C(=O)NC(C)(C)C(=O)NC(C)(C)C(=O)N[C@@H](CCC(=O)O)C(=O)N[C@@H](CCC(N)=O)C(=O)N[C@H](CO)Cc1ccccc1)C(C)C)C(C)C` [alamethicin, reference compound] (Ac-[Aib]P[Aib]A[Aib]AQ[Aib]V[Aib]GL[Aib]PV[Aib][Aib]EQ[Phe(ol)]), the pore-forming activity result in assay [1] (positive control at 50 nM (data not shown)) was “very strong signal”.

For “H-DCYEDWSRCTPGTSFLTGILWKDCHSRCKELGHRGGRCVDSPSKHCPGVLKNNKQCHCY (disulfide 2-46, 9-38, 24-56, 28-58) [neuromacin]”, the “activity relative to cecropin P1 and magainin II” value in assay [2] (B. megaterium, within the measurement period) is “over one order of magnitude lower”. Moreover, the “efficacy to induce membrane lesions, effect of pH” value in assay [2] (pH 5.2 versus pH 7.4, FIG. 5B) is “weaker at pH 5.2 than at pH 7.4”. Also, in assay [1] (final concentrations up to 2 μM (data not shown)), the pore-forming activity entry was “not detected”. In addition, the “start of reconnection post-axotomy” value in assay [3] is recorded as “less than 24 hours”. Moreover, the “activity towards A. hydrophila” value in assay [4] is recorded as “No activity”.

The values are drawn from patent publication US8173768B2, “Peptides having antimicrobial and neurotrophic activity and uses thereof” (priority 2009, dated 2012).
